Assay: CO release rates from free CORM and OCORS systems
Assay type: physicochemical
Procedure: This example illustrates the influence of the wall thickness of the silicone membrane on the release rate of the therapeutic gas.
The trigger compounds FeCl3 and Na2SO3 were used in aqueous solution and in molar excess amounts relative to the CORM.
In Table 1, Cmax describes the highest value measured for the therapeutic gas concentration. Tmax is the time, at which this value was measured. 090% describes 90% of Cmax, and T90% is the time point, at which 90% of Cmax were released. For the free metal carbonyl, a different release vessel was used than for the CO releasing systems, and therefore, the absolute values for Cmax differ.

[1] = trigger in aqueous solution in molar excess

- C90% (90% of Cmax) (free carbonyl measured in a different release vessel): 576.7 ppm
- Cmax (highest value measured for the therapeutic gas concentration) (trigger in aqueous solution in molar excess, free carbonyl measured in a different release vessel than the OCORS systems): 640.8 ppm
Compound: [C-]#[N+]CC(=O)O.[C-]#[N+]CC(=O)O.[C-]#[N+]CC(=O)O.[C-]#[O+].[C-]#[O+].[C-]#[O+].[Mo] [Entry 1, Mo(CO)3(CNCH2CO2H)3]
- T90% (time point at which 90% of Cmax were released) [1]: 17 min
- Tmax (time at which Cmax was measured) [1]: 44 min

— patent US12569448B2, “Membrane-based two component therapeutic gas release system for oral administration” (Julius-Maximilians-Universitaet Wuerzburg, priority 2019, dated 2026)
